# From patent publication US20130109581A1, “POSITIVELY CHARGED SPECIES AS BINDING REAGENTS IN THE SEPARATION OF PROTEIN AGGREGATES FROM MONOMERS” (priority 2009, published 2013)
# Entries after “also recorded” stand apart in the source; their conditions may differ. Like-named read-outs stand apart in the source and are kept apart here. Where a SMILES comes first, the peptide text is derived from it. [ ]: non-standard residue; d: D form. Ahx = NCCCCCC(=O)O
# Experiments:
# [1] = target: T1, Aβ42 ASPD (Homo sapiens, UniProt P05067); experiment: Misfolded Protein Assay, LoD and capture in CSF: ASPD; assay type: binding
# T1 construct: The Ab42 aggregates were prepared as previously described
# Method: (§1) The Ab42 aggregates were prepared as previously described: fibrils were prepared per Stine et al (JBC 2003, 278, p11612), globulomers were prepared per Barghorn et al (J Neurology 2005 95 p834), ADDLs were prepared per Lambert et al (PNAS 1998, 95 p6448), and ASPDs were prepared per Noguchi et al (JBC 2009 284 p32895). Normal CSF was pooled from clinically characterized non-demented patient CSF samples. AD CSF was pooled from clinically-characterized AD patient samples. Alzheimer's Disease Brain Homogenate (ADBH) was prepared by sonication of clinically diagnosed AD patient brain samples in 0.2M.sucrose (1:10 w/v).
# (§2) For the capture assay (Misfolded Protein Assay), aliquots of the beads (30 ul) were added to wells of a 96 well plate, followed by 125 ul of sample in 80:20 CSF:TBSTT. The plate was sealed and incubated for 1 h at 37 C with shaking. The plate was washed with TBST and the residual buffer removed. A denaturing solution (0.1 N NaOH) was added to each well and the plate heated to 80 C. for 30 min with shaking. After cooling the plate to RT, a neutralizing buffer (0.12 M NaH2PO3-0.4% TW20,) was added and the plate shaken briefly at RT. The assay was analyzed using the triplex Mesoscale Discovery ELISA kit for Aβ. The Aβ in the samples eluted from the beads were detected per the manufacturer's protocol.
# (§3) For the Limit of Detection (LoD) studies, serial dilutions of each aggregate were spiked into CSF and were assayed per the protocol described above. The LoD was defined as 2× over background levels.
# (§4) This pattern minors the capture selectivity observed when these species are tested with 3 ul of PSR1 beads and 1 ng/mL of aggregate.
# [2] = target: T2, Aβ42 Fibrils (Homo sapiens, UniProt P05067); experiment: Misfolded Protein Assay, LoD and capture in CSF: fibrils; assay type: binding
# T2 construct: The Ab42 aggregates were prepared as previously described
# Method: as §1, §2, §3, §4
# [3] = system: Alzheimer's Disease Brain Homogenate (ADBH) Aβ aggregates; experiment: Misfolded Protein Assay, LoD in CSF: ADBH; assay type: binding, human; conditions: spiked into CSF; LoD = 2× over background
# Method: as §1
# as §2, with “protocol. […]” for “protocol.”
# [4] = target: Aβ42 ADDL (Homo sapiens, UniProt P05067); experiment: Misfolded Protein Assay, LoD and capture in CSF: ADDL; assay type: binding
# Method: as §1, §2, §3, §4
# [5] = target: T3, Aβ40 aggregates in AD CSF (Homo sapiens, UniProt P05067); experiment: Discrimination between AD and normal CSF; assay type: binding; conditions: FIG. 39
# T3 construct: from tissue; host or cells: pooled cerebrospinal fluid (normal or AD)
# Method: as §1, §2
# For discriminating between AD and normal CSF, pooled normal CSF or pooled Alzheimer's Disease patient CSF, were assayed per the protocol described above.
# [6] = target: T4, Aβ42 Globulomer (Homo sapiens, UniProt P05067); experiment: Misfolded Protein Assay, LoD and capture in CSF: globulomer; assay type: binding
# T4 construct: beta amyloid (1-42) was monomerized with incubation in hexafluoroisopropanol
# Method: as §1, §2, §3, §4
# [7] = target: T5, normal CSF Aβ42 (Homo sapiens, UniProt P05067); experiment: NMPA with detergent washing: background from unspiked CSF, Abeta42; assay type: binding; conditions: for detection of normal CSF Aβ42 (background): 1% detergent wash after PSR1 pulldown, FIG. 35
# T5 construct: reduced the detection of normal CSF Aβ42 to the background levels; from tissue; host or cells: pooled normal cerebrospinal fluid
# Method: Second, two neutral detergents, polyethylene glycol sorbitan monolaurate (available as TWEEN 20 from Sigma-Aldrich, St. Louis, Mo.) and n-tetradecyl-N,N-dimethyl-3-ammonio-1-propanesulfonate (available as ZWITTERGENT 3-14 from EMI) Chemicals, Gibbstown, N.J.) were used to treat the globulomer-spiked CSF samples that had been contacted with PSR1 beads. For each assay, a mixture of 30 μl of PSR1 beads (coated at about 7-12 nmol PSR1 ligand/mg DYNAL beads, which were used in this example and in the following examples unless otherwise stated) and 70 μl of 1×TBSTT was immediately pipetted into each well on the pulldown plate. The liquid was removed on a magnetic separator. Fifty micro liters of 5×TBSTT was added to each well. The beads were suspended by briefly shaking at 750 rpm. Next […] of TBSTT or CSF sample without globulomer was added to each well. The pulldown plate was sealed and incubated at 37° C. for 1 hour with shaking at 500 rpm. After incubation, the beads were washed 8 times with TBST on the plate washer. After the plate wash, residual TBST buffer was removed from the beads on the magnetic separator. The beads were then incubated with 100 μl of either TBS, 1% Tween20 or 1% Zwittergent 3-14 for 30 minutes at room temperature at 750 rpm, (followed by an additional 8 washes with TBST on the plate washer. After removing residual TBST on the magnetic separator, 20 μl of denaturing solution, typically 0.1-0.15 N NaOH, was added to the beads. The plate was covered with an aluminum foil plate sealer and incubated at 80° C. for 30 minutes with shaking at 750 rpm. After incubation, the plate was cooled to room temperature and twenty micro liters of neutralizing solution, typically 0.12-0.18 M NaH2PO4+0.4% Tween20) was added into each well and the plate was incubated at room temperature for 5 minutes with shaking at 750 rpm. […] MSD Abeta Triplex Assay was preformed according to the manufacturer's instructions.
# (§5) A summary of the assay results and calculated signal/noise is shown below in Table 17.
# [8] = target: Abeta 42 globulomer (Homo sapiens, UniProt P05067); experiment: NMPA with detergent washing after PSR1 pulldown: globulomer detection; assay type: binding
# [9] = target: T6, normal CSF Aβ40 (Homo sapiens, UniProt P05067); experiment: NMPA with detergent washing: background from CSF, Abeta40; assay type: binding; conditions: 1% detergent wash after PSR1 pulldown; FIG. 35
# T6 construct: from tissue; host or cells: pooled cerebrospinal fluid (normal or AD)
# Method: Second, two neutral detergents, polyethylene glycol sorbitan monolaurate (available as TWEEN 20 from Sigma-Aldrich, St. Louis, Mo.) and n-tetradecyl-N,N-dimethyl-3-ammonio-1-propanesulfonate (available as ZWITTERGENT 3-14 from EMI) Chemicals, Gibbstown, N.J.) were used to treat the globulomer-spiked CSF samples that had been contacted with PSR1 beads. For each assay, a mixture of 30 μl of PSR1 beads (coated at about 7-12 nmol PSR1 ligand/mg DYNAL beads, which were used in this example and in the following examples unless otherwise stated) and 70 μl of 1×TBSTT was immediately pipetted into each well on the pulldown plate. The liquid was removed on a magnetic separator. Fifty micro liters of 5×TBSTT was added to each well. The beads were suspended by briefly shaking at 750 rpm. Next […] of TBSTT or CSF sample without globulomer was added to each well. The pulldown plate was sealed and incubated at 37° C. for 1 hour with shaking at 500 rpm. After incubation, the beads were washed 8 times with TBST on the plate washer. After the plate wash, residual TBST buffer was removed from the beads on the magnetic separator. […]
# as §5
# [10] = 3 ul of beads and 1 ng/mL of aggregate
# [11] = spiked into CSF, LoD = 2× over background
# [12] = CSF, PSR1 beads treated with detergent post capture
# [13] = pulldown CSF, PSR1 beads washed with 1% detergent
# Abeta 42 globulomer, sequence (P05067 672-713 limits assumed): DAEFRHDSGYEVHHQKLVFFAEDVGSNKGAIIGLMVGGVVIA
# T5 sequence (P05067 672-713 limits assumed): as above
# T1 sequence (P05067 672-713 limits assumed): as above
# T2 sequence (P05067 672-713 limits assumed): as above
# T4 sequence (P05067 672-713 limits assumed): as above
# Aβ42 ADDL, sequence (P05067 672-713 limits assumed): as above
# T3 sequence (P05067 672-711 limits assumed): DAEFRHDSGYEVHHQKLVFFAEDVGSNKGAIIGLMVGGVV
# T6 sequence (P05067 672-711 limits assumed): as above
compound,measurement,setting,value
"CC(=O)NC(Cc1ccccc1)C(=O)NC(CCCCN)C(=O)NC(Cc1ccccc1)C(=O)NC(CCCCN)C(=O)NC(CCCCN)C(=O)NC(CCCCN)C(=O)NCCCCCC(=O)NCCCCCC(=O)NC(CS)C(N)=O (stereo not drawn) [Ac-FKFKKK, Ac-FKFKKK-Ahx-Ahx-Cys-NH2] (Ac-FKFKKK[Ahx][Ahx]C-NH2; configuration not given here)",capture of ASPD,[1]; [10],1321
same,LoD,[1]; [11],300 pg/mL
same,capture of Fibril,[2]; [10],4138
same,LoD,[2]; [11],100 pg/mL
same,LoD,[3],<10 pg/mL
same,capture of ADDL,[4]; [10],1241
same,LoD,[4]; [11],300 pg/mL
same,Aβ40 signal in pooled AD CSF relative to normal pool,[5],higher Aβ40 signal in positive pooled AD CSF relative to unmatched normal pool; also recorded: largest change in signal
same,capture of Globulomer,[6]; [10],3409
same,LoD,[6]; [11],75 to 120 pg/mL
Polyethylene glycol sorbitan monolaurate [TW20],detection of normal CSF Aβ42 (background),[7],reduced the detection of normal CSF Aβ42 to the background levels observed when PSR1 is incubated with TBSTT buffer alone
same,LoD of globulomer (Cal),[8],2.52 pg/mL
same,"LoD of globulomer, RLU (S/N = 2)",[8],211 RLU
same,S/N at 25.3 pg/mL globulomer,[8],11.0
same,signal/noise of globulomer detection,[8],improved the signal/noise of globulomer detection
same,detection of normal CSF Aβ40 (background),[9],reduced the detection of normal CSF Aβ40 significantly
"n-Tetradecyl-N,N-dimethyl-3-ammonio-1-propanesulfonate [ZW3-14]",detection of normal CSF Aβ42 (background),[7],reduced the detection of normal CSF Aβ42 to the background levels observed when PSR1 is incubated with TBSTT buffer alone
same,"Abeta 42 RLU, 0 ng/mL Abeta 42 globulomer, Average",[7]; [12],110.0 RLU
same,signal/noise of globulomer detection,[8],improved the signal/noise of globulomer detection; also recorded: improved the signal/noise ratio for Abeta 42 globulomer detection more significantly
same,S/N Abeta 42 globulomer-spiked/unspiked,[8]; 0.5 ng/mL vs 0 ng/mL globulomer,7.7
same,S/N Abeta 42 globulomer-spiked/Abeta 40,[8]; Abeta 42 RLU at 0.5 ng/mL over average Abeta 40 RLU,2.2
same,"Abeta 42 RLU, 0.5 ng/mL Abeta 42 globulomer, Average",[8]; [12],842.0 RLU
same,LoD of globulomer (Cal),[8]; [13],2.33 pg/mL
same,"LoD of globulomer, RLU (S/N = 2)",[8]; [13],199 RLU
same,S/N at 25.3 pg/mL globulomer,[8]; [13],10.3
same,detection of normal CSF Aβ40 (background),[9],reduced the detection of normal CSF Aβ40 significantly
